Experimental data taken from ChEMBL document CHEMBL1159267, “Barceloneic acid A, a new farnesyl-protein transferase inhibitor from a Phoma species” (J Nat Prod, 1995).
The source made the active and inactive calls. No cut-off for these calls is given here.

biological target: T1, Protein farnesyltransferase (Homo sapiens, UniProt P49354+P49356); assay: Inhibition of human recombinant FPTase by Ras farnesyl-protein-transferase assay; type: protein-complex assay

Row | Structure (SMILES) | IC50
1 | COc1cc(O)c(Oc2cc(C)cc(O)c2C(=O)O)c(CO)c1 [BARCELONEIC ACID A] | 40 µM

biological target: T1, Protein farnesyltransferase; assay: Inhibition of human recombinant FPTase up to ~300 uM by Ras farnesyl-protein-transferase assay; type: protein-complex assay

Row | Structure (SMILES) | Activity
2 | Cc1cc(O)c(C(=O)O)c(O)c1 | inactive
3 | COc1cc(O)c(Oc2cc(C)cc(O)c2C(=O)O)c(C(=O)O)c1 | inactive
4 | COc1cc(CO)c(Oc2cc(C)cc(O)c2C(=O)O)c(OC)c1 | inactive
5 | COC(=O)c1c(OC)cc(C)cc1Oc1c(CO)cc(OC)cc1OC | inactive
6 | COc1cc(O)c2c(c1)COC(=O)c1c(O)cc(C)cc1O2 | inactive
7 | COc1cc(CO)c(Oc2cc(C)cc(OC)c2C(=O)O)c(OC)c1 | inactive
